Measurements taken from patent US20250179103A1, “6-OXODECAHYDROPYRROLO[1,2-A][1,5]DIAZOCINE AND 6-OXODECAHYDRO-4H-PYRROLO[2,1-D][1,5]THIAZOCINE DERIVATIVES AS STAT3 AND STAT6 MODULATORS FOR THE TREATMENT OF CANCER AND INFLAMMATORY CONDITIONS” (Recludix Pharma, Inc., priority 2022, published 2025).

How the values were obtained:
[1] = molecular target: T1, Recombinant STAT6 protein (STAT6(W123-T658)) (Homo sapiens, UniProt P42226); assay: STAT6 Fluorescence Polarization (FP) Assay; format: binding; settings: STAT6(W123-T658) 250 nM, probe 5-FAM-ApYKPFQDLI-NH2 2 nM, 45-minute incubation
T1 construct: Recombinant STAT6 protein (STAT6(W123-T658))
T1 sequence (P42226 123-658): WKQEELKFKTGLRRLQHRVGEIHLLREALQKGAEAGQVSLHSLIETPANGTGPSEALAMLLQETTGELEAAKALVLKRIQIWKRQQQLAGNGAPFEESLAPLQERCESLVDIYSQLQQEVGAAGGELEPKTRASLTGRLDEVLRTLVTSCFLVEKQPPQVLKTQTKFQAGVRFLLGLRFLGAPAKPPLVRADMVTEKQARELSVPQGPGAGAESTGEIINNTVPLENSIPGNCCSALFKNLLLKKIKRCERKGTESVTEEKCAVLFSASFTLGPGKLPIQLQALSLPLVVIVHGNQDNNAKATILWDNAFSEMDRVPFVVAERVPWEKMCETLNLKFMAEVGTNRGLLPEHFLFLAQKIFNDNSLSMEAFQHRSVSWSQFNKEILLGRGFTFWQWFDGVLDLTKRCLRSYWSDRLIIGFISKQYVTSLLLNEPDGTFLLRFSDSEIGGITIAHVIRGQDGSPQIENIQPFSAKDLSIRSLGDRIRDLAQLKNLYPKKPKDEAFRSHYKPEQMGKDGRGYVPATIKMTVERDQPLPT
Summary of the method: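 Displacement of a fluorescent phosphotyrosine peptide (5-FAM-ApYKPFQDLI-NH2, 2 nM) from STAT6(W123-T658) (250 nM), 1% DMSO, pH 7.4 HEPES buffer. After 45 min at room temperature, polarization (mP) was plotted versus log compound concentration and fitted by nonlinear regression to give IC50.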

[2] = molecular target: T2, Recombinant STAT3 protein (STAT3(G127-I722)) (Homo sapiens, UniProt P40763); assay: STAT3 Fluorescence Polarization (FP) Assay; format: binding; settings: STAT3(G127-I722) 25 nM, probe 5-FAM-GpYLPQTV-NH2 2 nM, 45-minute incubation
T2 construct: Recombinant STAT3 protein (STAT3(G127-I722))
T2 sequence (P40763 127-722): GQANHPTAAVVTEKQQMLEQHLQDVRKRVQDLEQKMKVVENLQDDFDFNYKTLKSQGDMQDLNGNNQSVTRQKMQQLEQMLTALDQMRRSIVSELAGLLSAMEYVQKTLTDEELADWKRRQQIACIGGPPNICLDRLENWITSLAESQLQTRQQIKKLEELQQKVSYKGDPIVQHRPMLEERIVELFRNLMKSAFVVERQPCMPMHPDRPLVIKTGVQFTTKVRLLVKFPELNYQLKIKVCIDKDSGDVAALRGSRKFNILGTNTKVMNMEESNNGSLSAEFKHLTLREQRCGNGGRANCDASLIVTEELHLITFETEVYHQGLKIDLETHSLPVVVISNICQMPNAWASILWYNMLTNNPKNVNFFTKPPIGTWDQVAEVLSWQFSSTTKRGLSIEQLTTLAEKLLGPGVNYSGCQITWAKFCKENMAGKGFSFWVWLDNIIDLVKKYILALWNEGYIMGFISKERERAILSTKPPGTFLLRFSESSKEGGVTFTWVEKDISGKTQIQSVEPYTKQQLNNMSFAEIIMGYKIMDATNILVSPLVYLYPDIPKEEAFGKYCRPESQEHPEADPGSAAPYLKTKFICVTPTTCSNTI
Summary of the method: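 Fluorescence polarization after a 45-min room-temperature incubation measured compound displacement of a 2 nM fluorescein-labelled phosphotyrosine peptide (5-FAM-GpYLPQTV-NH2) from 25 nM recombinant STAT3(G127-I722). Buffer was 10 mM HEPES pH 7.4 with 1% DMSO final. IC50s were fitted by nonlinear regression of mP against log concentration.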

Compound | IC50 [1] | IC50 [2]
CC(=O)N1CC[C@H]2CC[C@@H](C(=O)N3CC[C@@H](c4ccccc4)[C@H](C#N)C3)N2C(=O)[C@@H](NC(=O)c2cc3cc(C(F)(F)P(=O)(O)O)ccc3s2)C1 (relative stereo) [Compound 154, ((2-(((5S,8S,10aR)-3-acetyl-8-((rel-trans)-3-cyano-4-phenylpiperidine-1-carbonyl)-6-oxodecahydropyrrolo[1,2-a][1,5]diazocin-5-yl)carbamoyl)benzo[b]thiophen-5-yl)difluoromethyl)phosphonic acid] | 0.3 to 3 µM | 1 to 10 µM
CC(=O)N1CC[C@H]2CC[C@@H](C(=O)N3CCC(N(Cc4noc(C5CC5)n4)C(C)=O)C3)N2C(=O)[C@@H](NC(=O)c2cc3cc(C(F)(F)P(=O)(O)O)ccc3s2)C1 (stereo partly drawn) [Compound 85, ((2-(((5S,8S,10aR)-3-acetyl-8-(3-(N-((5-cyclopropyl-1,2,4-oxadiazol-3-yl)methyl)acetamido)pyrrolidine-1-carbonyl)-6-oxodecahydropyrrolo[1,2-a][1,5]diazocin-5-yl)carbamoyl)benzo[b]thiophen-5-yl)difluoromethyl)phosphonic acid] | 0.3 to 3 µM | 1 to 10 µM
CC(=O)N1CC[C@H]2CC[C@@H](C(=O)Nc3ccn(-c4ccccc4)c(=O)c3)N2C(=O)[C@@H](NC(=O)c2cc3cc(C(F)(F)P(=O)(O)O)ccc3[nH]2)C1 [Compound 140, ((2-(((5S,8S,10aR)-3-acetyl-6-oxo-8-((2-oxo-1-phenyl-1,2-dihydropyridin-4-yl)carbamoyl)decahydropyrrolo[1,2-a][1,5]diazocin-5-yl)carbamoyl)-1H-indol-5-yl)difluoromethyl)phosphonic acid] | 0.3 to 3 µM | 0.1 to 1 µM
Cc1ccc2[nH]nc(C(=O)N3CC[C@H]4CC[C@@H](C(=O)N5CC(c6cc[nH]c(=O)c6)CC56CC6)N4C(=O)[C@@H](NC(=O)c4ccc5ccc(C(F)(F)P(=O)(O)O)cc5c4)C3)c2c1 (stereo partly drawn) [Compound 367, (difluoro(7-(((5S,8S, 10aR)-3-(5-methyl-1H-indazole-3-carbonyl)-6-oxo-8-(6-(2-oxo-1,2-dihydropyridin-4-yl)-4-azaspiro[2.4]heptane-4-carbonyl)decahydropyrrolo[1,2-a][1,5]diazocin-5-yl)carbamoyl)naphthalen-2-yl)methyl) phosphonic acid] | ≤ 0.3 µM | 1 to 10 µM
Cc1ccc2onc(C(=O)N3CC[C@H]4CC[C@@H](C(=O)N5CCOC[C@@H]5c5ccccc5)N4C(=O)[C@@H](NC(=O)c4ccc5ccc(C(F)P(=O)(O)O)cc5c4)C3)c2c1 (stereo partly drawn) [Compound 370, (fluoro(7-(((5S,8S, 10aR)-3-(5-methylbenzo[d]isoxazole-3-carbonyl)-6-oxo-((S)-3-phenylmorpholine-4-carbonyl)decahydro-pyrrolo[1,2-a] [1,5]diazocin-5-yl)carbamoyl)naphthalen-2-yl)methyl)phosphonic acid] | ≤ 0.3 µM | > 10 µM
CCC(=O)NCCCN(C)C(=O)[C@@H]1CC[C@@H]2CCN(C(C)=O)C[C@H](NC(=O)/C=C(\C)c3ccc(C(F)(F)P(=O)(O)O)cc3)C(=O)N21 [Compound 25, ((4-((E)-4-(((5S,8S,10aR)-3-acetyl-8-(methyl(3-propionamidopropyl)carbamoyl)-6-oxodecahydropyrrolo[1,2-a][1,5]diazocin-5-yl)amino)-4-oxobut-2-en-2-yl)phenyl)difluoromethyl)phosphonic acid] | 3 to 30 µM | > 10 µM
CC(=O)N1CC[C@H]2CC[C@@H](C(=O)Nc3ccc4cn(C)nc4c3)N2C(=O)[C@@H](NC(=O)c2cc3cc(C(F)(F)P(=O)(O)O)ccc3s2)C1 [Compound 157, ((2-(((5S,8S,10aR)-3-acetyl-8-((2-methyl-2H-indazol-6-yl)carbamoyl)-6-oxodecahydropyrrolo[1,2-a][1,5]diazocin-5-yl)carbamoyl)benzo[b]thiophen-5-yl)difluoromethyl)phosphonic acid] | 0.3 to 3 µM | 1 to 10 µM
Cc1ccc2[nH]nc(C(=O)N3CC[C@H]4CC[C@@H](C(=O)N(C)C)N4C(=O)[C@@H](NC(=O)c4cc5cc(CP(=O)(O)O)ccc5s4)C3)c2c1 [Compound 230, ((2-(((5S,8S,10aR)-8-(dimethylcarbamoyl)-3-(5-methyl-1H-indazole-3-carbonyl)-6-oxodecahydropyrrolo[1,2-a][1,5]diazocin-5-yl)carbamoyl)benzo[b]thiophen-5-yl)methyl)phosphonic acid] | 3 to 30 µM | > 10 µM
CC(=O)N1CC(N(C)C(=O)[C@@H]2CC[C@@H]3CCN(C(C)=O)C[C@H](NC(=O)c4cc5cc(C(F)(F)P(=O)(O)O)ccc5[nH]4)C(=O)N32)C1 [Compound 170, ((2-(((5S,8S,10aR)-3-acetyl-8-((1-acetylazetidin-3-yl)(methyl)carbamoyl)-6-oxodecahydropyrrolo[1,2-a][1,5]diazocin-5-yl)carbamoyl)-1H-indol-5-yl)difluoromethyl)phosphonic acid] | 0.3 to 3 µM | 1 to 10 µM
CC(=O)N1CCC(NC(=O)c2ccc3ccc(C(F)(F)P(=O)(O)O)cc3c2)C(=O)N2C(CCC2C(=O)N2CC(C#N)C(c3ccccc3)C2)C1 (mixture of isomers) [Compound 4, ((7-(((5S,8S,10aR)-2-acetyl-8-((rel-trans)-3-cyano-4-phenylpyrrolidine-1-carbonyl)-6-oxodecahydropyrrolo[1,2-a][1,4]diazocin-5-yl)carbamoyl)naphthalen-2-yl)difluoromethyl)phosphonic Acid] | ≤ 0.3 µM | 1 to 10 µM
O=C(N[C@H]1CN(c2ccccn2)C[C@H]2CC[C@@H](C(=O)N3CCOCC3)N2C1=O)c1ccc2ccc(C(F)P(=O)(O)O)cc2c1 (stereo partly drawn) [Compound 393, (fluoro(7-(((4S,7S,9aR)-7-(morpholine-4-carbonyl)-5-oxo-2-(pyridin-2-yl)octahydro-1H-pyrrolo[1,2-a][1,4]diazepin-4-yl)carbamoyl)naphthalen-2-yl)methyl) phosphonic acid] | > 30 µM | > 10 µM
CC(=O)N1CC[C@H]2CC[C@@H](C(=O)N(C)c3ccccc3)N2C(=O)[C@@H](NC(=O)/C(C)=C/c2cccc(C(F)(F)P(=O)(O)O)c2)C1 [Compound 45, ((3-((E)-3-(((5S,8S,10aR)-3-acetyl-8-(methyl(phenyl)carbamoyl)-6-oxodecahydropyrrolo[1,2-a][1,5]diazocin-5-yl)amino)-2-methyl-3-oxoprop-1-en-1-yl)phenyl)difluoromethyl)phosphonic acid] | > 30 µM | > 10 µM
CC(=O)N1CC[C@H]2CC[C@@H](C(=O)N3CCC[C@H]3Cc3ccccc3)N2C(=O)[C@@H](NC(=O)c2cc3cc(C(F)(F)P(=O)(O)O)ccc3[nH]2)C1 [Compound 163, ((2-(((5S,8S,10aR)-3-acetyl-8-((S)-2-benzylpyrrolidine-1-carbonyl)-6-oxodecahydropyrrolo[1,2-a][1,5]diazocin-5-yl)carbamoyl)-1H-indol-5-yl)difluoromethyl)phosphonic acid] | 0.3 to 3 µM | 1 to 10 µM
CC(=O)N1CC[C@H]2CC[C@@H](C(=O)N(C)c3ccccc3)N2C(=O)[C@@H](NC(=O)c2ccc3ccc(P(=O)(O)O)cc3c2)C1 [Compound 114, (7-(((5S,8S,10aR)-3-acetyl-8-(methyl(phenyl)carbamoyl)-6-oxodecahydropyrrolo[1,2-a][1,5]diazocin-5-yl)carbamoyl)naphthalen-2-yl)phosphonic acid] | > 30 µM | > 10 µM
CC(=O)N1CC[C@H]2CC[C@@H](C(=O)N3C[C@@H](C#N)[C@@H]3c3ccccc3)N2C(=O)[C@@H](NC(=O)c2cc3cc(C(F)(F)P(=O)(O)O)ccc3s2)C1 (relative stereo) [Compound 204, ((2-(((5S,8S,10aR)-3-acetyl-8-((rel-trans)-3-cyano-2-phenylazetidine-1-carbonyl)-6-oxodecahydropyrrolo[1,2-a][1,5]diazocin-5-yl)carbamoyl)benzo[b]thiophen-5-yl)difluoromethyl)phosphonic acid] | 0.3 to 3 µM | 0.1 to 1 µM
CC(=O)N1CC[C@H]2CC[C@@H](C(=O)Nc3ccn(-c4ccccc4)c(=O)c3C#N)N2C(=O)[C@@H](NC(=O)c2cc3cc(C(F)(F)P(=O)(O)O)ccc3[nH]2)C1 [Compound 105, ((2-(((5S,8S,10aR)-3-acetyl-8-((3-cyano-2-oxo-1-phenyl-1,2-dihydropyridin-4-yl)carbamoyl)-6-oxodecahydropyrrolo[1,2-a][1,5]diazocin-5-yl)carbamoyl)-1H-indol-5-yl)difluoromethyl)phosphonic acid] | 0.3 to 3 µM | 0.1 to 1 µM
